In one assay the test system is human genomic DNA. Briefly: Complex formation with DNA (ethidium bromide intercalation, size exclusion HPLC). It counts as binding. The source says: (A) Emission spectra of human genomic DNA intercalated with Ethimidium bromide in the presence of increasing doses of LL-37. (B) Size exclusion HPLC of LL-37 alone, mut-LL-37 alone or DNA premixed with LL-37 or mut-37. […] Absorbance scales are different to accommodate the DNA peak.
A general note: In gel filtration, larger molecules generally elute earlier.

For a further assay, the system named is B16 tumor. Briefly: Intratumoral injection into established B16 melanoma, tumor size. It counts as in vivo, C57BL/6 mice. The method, then: Mice bearing a 7-d subcutaneous B16 melanoma were injected with […] of LL-37 once (single), or repeatedly for 3 days (3×). Control injections were done with PBS. Tumor size was monitored by caliper every second day. Data represent mean of 4 mice per group.
Intratumoral injection of LL-37 elicits potent anti-tumor activity. 3×10^5 B16 tumor cells were inoculated into shaved flanks of C57BL/6 mice. Tumors were allowed to grow for 7 days. On day 7, tumors were either injected with a single dose of LL-37 (100 μg), injected daily for 3 consecutive days with LL-37 or injected with saline as a control. Tumor size was monitored with a caliper and volumes estimated using the formula π/6×length×width^2. The experiment was stopped 12 days after injection because all mice in the control group had died or their tumor had reached 20 mm in their maximal diameter. […] Thus, intratumoral LL-37 injection induces potent anti-tumor activity.

The subject of assay [1] is plasmacytoid dendritic cells (pDC). Briefly: IFN-α and cytokine production by purified human pDC (ELISA of supernatants). It counts as cell-based. The source says:
PDC from healthy donors were purified from freshly collected buffy coats. Briefly, PBMC were isolated by Ficoll-Hypaque density gradient centrifugation (GE Healthcare, Piscatway, N.J.) followed by positive sorting using anti-BDCA4-conjugated magnetic microbeads (Miltenyi Biotec, Auburn, Calif.). The recovered cells were stained with PE-Cy5-conjugated anti-CD4, APC-conjugated CD11c, and a cocktail of FITC-conjugated anti-CD3, anti-CD14, anti-CD16, anti-CD15, anti-CD20 and anti-CD56 (Lineage-FITC) (BD Pharmingen, San Diego, Calif.). The CD4+CD11c-Lin- (pDC precursors) were isolated by cell sorting. Purity was routinely >99%. PDC (5-10×10^4/well) were cultured in 96-well round-bottom plates in RPMI 1640 (GIBCO, Carlsbad, Calif.) supplemented with 10% FCS (Atlanta Biologicals, Lawrenceville, Ga.). Where indicated, pDC were stimulated with CpGA (1 μM), CpGB (1 μM), R837 (10 ug/ml), IRS (4 uM), non-CpG sequence (4 uM), and different concentrations of LL-37 and of human genomic DNA. To prepare LL-37.DNA complexes, CpGB, huDNA, non-CpG and LL-37 were mixed by inversion and incubated for 30 min at room temperature before being added to the cells.
Supernatants samples were taken after 18-24 h after addition of the stimuli. Human IFN-α was measured using a human IFN-α ELISA kit (PBL Biomedical Laboratories, New Brunswick, N.J.) according to the company's instructions. IL-6 and TNF-α were detected using a kit for human IL6 and TNF-α (R&D Systems), respectively.
In general terms: An ELISA detects its analyte on a solid surface through an enzyme-linked reagent.

Another assay deals with U937. Briefly: Binding and protection of DNA released by dying tumor cells (electrophoresis of supernatants). The conditions noted are these: irradiated tumor cells, 24 h culture. It is filed as cell-based, human. The method, then: (a) U937 were UV-irradiated to induce apoptosis and cultured for 24 h, or rendered necrotic by repeated freeze/thaw cycles and stained with Annexin V and PI to visualize apoptosis and necrosis. (b) 5×10^6 live U937 cells (lines 1+2), or apoptotic UV-irradiated U937 (lines 3+4) were cultured for 24 h either alone or in the presence of LL-37 ([…]) before cell free supernatant was collected. U397 were also lyzed by freeze-thaw cycles to induce primary necrosis and cultured for 1 h either alone or in the presence of LL-37 ([…]) before cell free supernatant was collected. 20 ul of the supernatants in buffer were loaded onto 1% agarose gel and the electrophoresis was ran for 1.5 hrs at 100V. The image was acquired with a Biorad gel imaging system.
LL-37 combined with dying tumor cells can bind tumor-derived self-DNA in-vitro. To test the ability of LL-37 to bind and protect self-DNA released by dying tumor cells, we generated apoptotic and necrotic tumor cells in the presence or absence of LL-37, and measured DNA contents in culture supernatants by electrophoresis. Primary necrosis induced by consecutive freeze and thaw cycles, and apoptosis with secondary necrosis induced by γ-irradiation at 20,000 rad followed by a 24 h culture (at 5×10^6 cells in 500 μl) were confirmed by Annexin plus PI staining (FIG. 26a).

The test system of a further assay is B16-OVA tumor. Briefly: Vaccination of mice bearing established B16-OVA melanoma, tumor size. It counts as in vivo, C57BL/6 mice. The conditions noted are these: mixed with irradiated B16-OVA. Here is the method: Mice bearing a 7-d subcutaneous B16 melanoma transfected with a gene encoding OVA (B16-OVA) were vaccinated subcutaneously with 1) LL-37 alone; irradiated B16-OVA tumor (iB16-OVA); irradiated B16-OVA tumor mixed with […] CpG-2216 (iB16-OVA+CpG); irradiated B16-OVA tumor with […] LL-37 (iB16-OVA+LL-37). Tumor size was monitored by caliper every second day. Data represent mean of 4 mice per group.
We also performed vaccine studies using the B16 tumor model of melanoma, B16 is a highly aggressive tumor with low immunogenicity. B16 tumor cells can be transfected with ovalbumin (OVA) to provide an immunogen that allows easy tracking of the anti-tumor immune response. 3×10^5 B16-OVA tumor cells were implanted subcutaneously in the flank of C57BL/6 mice and allowed to grow. Seven days later mice were treated with a single subcutaneous injection of LL-37 mixed with irradiated B16-OVA tumor cells. Control injections included LL-37 alone, irradiated B16-OVA alone, or irradiated B16-OVA mixed with the synthetic TLR9 agonist CpG. A detailed method on the generation of these vaccines is provided in D2.1. Tumor size was monitored with a caliper and volumes estimated using the formula […]. The experiment was stopped 10 days after injection because all mice in the control group had died or their tumor had reached 20 mm in their maximal diameter.

For the sequence “LLGDFFRKSKEKIGKEFKRIVQRIKDFLRNLVPRTES [LL-37]”, the “Complex formation with DNA” value in the assay with human genomic DNA is recorded as “complexed with DNA”. Further, the “Growth of established B16 tumor, single intratumoral injection” value with B16 tumor (100 μg on day 7) is listed as “significantly delayed the growth of established B16 tumor”. The “Anti-tumor response, repeated intratumoral injection” value with B16 tumor (three consecutive days) was “showed a trend towards a better anti-tumor response”. In assay [1], the “IFN-α in pDC stimulated with non-CpG-ODN sequences plus LL-37” value was “induce significant levels of IFN-α”; the “IFN-α production by pDC stimulated with nucleic acid alone or combined with LL-37, as labelled” value is “converts genomic DNA of human and bacterial origin into potent IFN-α inducers”. For the same sequence, in assay [1] (LL-37 10 μM), the “IL-6 production by pDC” value is on record as “only induced IFN-α but not IL-6 or TNF-α” and the “TNF-α production by pDC” value is “only induced IFN-α but not IL-6 or TNF-α”. Also, the “IFN-α by pDC relative to phosphothiorate CpG-B alone” value in assay [1] (LL-37 added to phosphodiesteric or phosphothiorate CpG-B) is “approximately 10 fold”. Further, in assay [1] (pDC cultured with LL-37, 10% serum in culture medium, n=10), the “IFN-α produced by pDC (mean)” value is given as 950 pg/ml. Also, the “IFN-α produced by pDC (range)” value in assay [1] (pDC cultured with LL-37, n=10) was 200-4000 pg/ml. Moreover, the “DNA detected in culture supernatants of dying tumor cells” value in the assay with U937 is recorded as “exclusively detected DNA in supernatants of irradiated tumor cells cultured with LL-37”. In the assay with B16-OVA tumor, the “Adjuvant potency compared to CpGs (CpG-2216)” value was “more potent than CpGs”.
